Measured values taken from the NIST ThermoML archive (doi:10.1021/je060271a).

Settings: 303.15 K, Liquid, Vibrating tube method

CCCCCCC(=O)OCC(COC(=O)CCCCCC)(COC(=O)CCCCCC)COC(=O)CCCCCC [pentaerythritol tetraheptanoate]
Settings | mass density [kg/m3]
14618 kPa | 979.8
14643 kPa | 979.6
14669 kPa | 979.7
14835 kPa | 979.7
14866 kPa | 979.8
14893 kPa | 979.8
14920 kPa | 979.9
14947 kPa | 979.9
14979 kPa | 979.9
15006 kPa | 979.9
15179 kPa | 980
15268 kPa | 980.1
15330 kPa | 980.1
15358 kPa | 980.1
15511 kPa | 980.2
15757 kPa | 980.3
15823 kPa | 980.4
15852 kPa | 980.4
15911 kPa | 980.5
15969 kPa | 980.5
15996 kPa | 980.5
16084 kPa | 980.4
16171 kPa | 980.5
16226 kPa | 980.7
16314 kPa | 980.7
16348 kPa | 980.7
16441 kPa | 980.7
16499 kPa | 980.7
16527 kPa | 980.8
16556 kPa | 980.8
16591 kPa | 980.8
16620 kPa | 980.9
16684 kPa | 980.8
16714 kPa | 981
16809 kPa | 980.9
16906 kPa | 981
16937 kPa | 981.1
16967 kPa | 981.1
17004 kPa | 981
17035 kPa | 981
17066 kPa | 981.1
17103 kPa | 981.1
17134 kPa | 981.1
17305 kPa | 981.2
17337 kPa | 981.2
17369 kPa | 981.4
17407 kPa | 981.3
17756 kPa | 981.5
17796 kPa | 981.5
17831 kPa | 981.5
17865 kPa | 981.5
17899 kPa | 981.6
17940 kPa | 981.7
17975 kPa | 981.7
18052 kPa | 981.6
18128 kPa | 981.7
18164 kPa | 981.8
18201 kPa | 981.7
18237 kPa | 981.8
18282 kPa | 981.7
18319 kPa | 981.9
18356 kPa | 981.8
18394 kPa | 981.8
18458 kPa | 981.9
18488 kPa | 981.8
18517 kPa | 981.8
18612 kPa | 982
18935 kPa | 982.2
18973 kPa | 982.2
19005 kPa | 982.2
19038 kPa | 982.3
19070 kPa | 982.2
19102 kPa | 982.2
19342 kPa | 982.4
19381 kPa | 982.5
19414 kPa | 982.5
19448 kPa | 982.5
19484 kPa | 982.6
19774 kPa | 982.5
19918 kPa | 982.7
19954 kPa | 982.7
19989 kPa | 982.8
20030 kPa | 982.7
20066 kPa | 982.9
20143 kPa | 982.9
20336 kPa | 982.9
20372 kPa | 982.9
20409 kPa | 983
20454 kPa | 983
20490 kPa | 983.1
20527 kPa | 983.1
20572 kPa | 983.1
20609 kPa | 983.2
20647 kPa | 983.1
20691 kPa | 983.2
20729 kPa | 983.3
20767 kPa | 983.1
20812 kPa | 983.2
20936 kPa | 983.2
20976 kPa | 983.4
21014 kPa | 983.4
21054 kPa | 983.3
21101 kPa | 983.4
21140 kPa | 983.4
21179 kPa | 983.5
21227 kPa | 983.4
21267 kPa | 983.4
21314 kPa | 983.5
21354 kPa | 983.4
21444 kPa | 983.6
21526 kPa | 983.6
21576 kPa | 983.5
